Data set [1] in a line: Phase solubility study: solubility of pure ALB in distilled water. The format is physicochemical. Conditions: thermodynamic from solid, 25 °C. The protocol:
(§1) Phase solubility tests were conducted in distilled water following the procedure outlined in the Higuchi and Connors technique. […] Samples were placed in the water bath (25 °C/2 days/50 rpm) to attain equilibrium. Samples of 3 mL were withdrawn and filtered through a 0.45 μm nylon membrane filter. The filtrate (1 mL) was diluted appropriately with methanol, stirred for one hour (200 rpm), and assayed at 340 nm. The concentrations used were 2, 4, 10, 15, and 20 mmol/L for both βCD and HPβCD.

Data set [2] is described as follows: Phase solubility study of ALB with βCD (stability constant). The format is physicochemical. Conditions: distilled water, 25 °C. The protocol: as §1
The nature of data set [3]: Phase solubility study of ALB with HPβCD (stability constant). The format is physicochemical. The note with it: distilled water, 25 °C. As to the method:
as §1

A short description of data set [4]: Dissolution test, USP apparatus type II. The format is physicochemical. The note with it: pH 6.8 phosphate buffer, 37 °C, 100 rpm, powder. As to the method:
In the following circumstances, the dissolution test was carried out on the prepared ALB capsules and the complex-containing ones. The dissolution medium was a USP type II (paddle type) and 900 mL of pH 6.8 phosphate buffer at 37 ± 1 °C with the rotation speed fixed at […]. At selected time points (10, 20, …, 80), 2 mL samples of dissolution medium were withdrawn and replaced with a fresh buffer. Times start from 0-time points for powder dissolution and end after 20 min (average time to dissolve the capsule shell).

Data set [5] can be described thus: Oral pharmacokinetic (bioavailability) study in rats, non-compartmental analysis. The data set is classed as in vivo, Wistar rats. As to the method: The Shimadzu SCL-10A VP system control (Kyoto, Japan) has a mass detector (LCMS2010A) from Shimadzu Kylimatu, Japan. The mobile phase comprised acetonitrile–deionized water–formic acid (70: 30: 0.1%, v/v). Rosuvastatin was utilized as an internal standard. The injection volume was 10 µL; the flow rate was […]; the autosampler temperature was 5 °C; the column temperature was 25 °C; and the column was ACE (C18; 4.6 × […]) with particle size of 5.0 µm.
The samples were prepared for injection into the instrument as follows: Samples (including known/unknown spiked plasma and samples) were obtained from the deep freezer, followed by a period of room-temperature thaw. Later, a plasma pipet was performed on the samples after they were shaken to form a mixture. A total of 270 µL of blank plasma per 300 µL of spiked plasma were pipetted into the labeled test tubes, and 30 µL of serial solutions into blank plasma were added. Then, 50 µL of rosuvastatin (IS) working solutions were added. Then, the samples were vortexed for roughly 10 s. A total of 700 µL of acetonitrile (precipitation solutions) were added and vortexed again for 2.0 min, then centrifugated at 4000 rpm for roughly five min at room temperature. After that, 200 µL from the supernatant was transferred to the HPLC vials inserts. Finally, the vials were capped and transferred into the autosampler racks.
The study protocol was validated and approved by the Institutional Review Board (IRB) of Applied Science University (ASU) (Decision no. 6/2021–2022). The preclinical investigation was conducted at the Animal House of ASU as a combined project. A total of 12 Wistar rats were prepared for this study and divided into two groups, with each group containing 6 rats. The average weight of the animals was 200 g ± 15 g, aged four weeks, and they were all males.
The animals for the experiment were prepared by depriving them of food (for about twelve hours) apart from full access to water, and they were identified by a sign mark on the tail. After the dosing of ALB, samples were retrieved from the rat’s tail. After, the tail was warmed for half a minute via a hot pad before every sampling period. […] The samples were kept in heparinized Eppendorf tubes, centrifugated to obtain the plasma, frozen at −25 °C, and kept until the time of analysis.
The plasma level–time profile of ALB was obtained using Microsoft Excel. Two profiles, F1 in G1 and F2 in G2, were plotted. […] ANOVA was applied to detect significant parameter differences using a […].

For data set [6] the following is noted: cited from earlier work.
For data set [7] the following is noted: cited from earlier work. This is another data set of the same source.
Setting [8] is: male, Wistar, rat, plasma, po, 15 mg/kg.

The term solubility denotes the dissolved amount per volume that the medium holds. A word on the AUC(0-inf): it is total exposure, with the tail of the curve extrapolated. A low value points to less exposure. A word on the Cmax: it is the highest concentration seen after dosing. What is called Tmax is the time from dosing to the highest level. Take `CCc1cc2c(cc1N1CCC(N3CCOCC3)CC1)C(C)(C)c1[nH]c3cc(C#N)ccc3c1C2=O` [ALB, Alectinib]: the solubility at 2 days in data set [1] was 2 µM; in data set [1] (approximate), roughly 1 µg/mL. The “Ks (stability constant)” value was determined as 500 M⁻¹ in data set [2] and 1836 M⁻¹ in data set [3]. Besides, the “T30 (amount of ALB released in 30 min)” value in data set [4] is reported as 18%. In addition, the “Plasma concentration of ALB at 72 h” value in data set [5] (Wistar rats, F1 and F2, LLOQ 15 ng/mL) is “below the LLOQ”. Moreover, the AUC(0-inf) in data set [5] (setting [8]) came out at 7280 ± 306 ng·h/mL. For the same compound, in data set [5] (setting [8]), the peak level (Cmax) was 240 ± 26.9 ng/mL. Besides, in data set [5] (setting [8]), the Tmax was found to be 7.33 ± 1.03 h. In addition, in data set [5] (male, Wistar, rat, plasma, po, 15 mg/kg, read-out: AUC0-48 (AUC-48)), the AUC(0-t) worked out at 5950 ± 265 ng·h/mL. The k el in data set [5] (male, Wistar, rat, plasma, po, 15 mg/kg, read-out: Kel (elimination rate constant) (converted)) is 1.25e-05 s⁻¹. Further, in data set [6], the “log partition coefficient (log p)” value is 5.2. In addition, the Oral bioavailability entry in data set [7] was “around 37%”.
